Experimental data as given in patent publication US6355799B1, “Substituted benzene compounds, process for their preparation, and herbicidal and defoliant compositions containing them” (ISK Americas Incorporated, priority 1997, dated 2002).

Assays:
Assay type in all cases: in vivo
[1] = system: green foxtail (Setaria viridis, SETVI); assay: Pre-emerge test, greenhouse herbicide activity screening; conditions: phytotoxicity rating 0-100, 14 days after application
Description: (§1) A standard greenhouse herbicide activity screening system was used to evaluate the herbicidal efficacy and crop safety of these test compounds. Seven broadleaf weed species including redroot pigweed (Amaranthus retroflexus, AMARE, velvetleaf (Abutilon theophrasti, ABUTH), sicklepod (Cassia obtusifolia, CASOB), ivyleaf morningglory (Ipomoea hederacea, IPOHE), lambsquarters (Chenopodium album, CHEAL), common ragweed (Ambrosia artemisizfolia L., AMBEL), and cocklebur (Xanthium strumarium, XANST) were used as test species. Four grass weed species including green foxtail (Setaria viridis, SETVI), barnyardgrass (Echinochloa crus-galli, ECHCG), johnsongrass (Sorghum halepense, SORHA), and large crabgrass (Digitaria sanguinalis, DIGSA) were also used. In addition, three crop species, field corn (Zea mays L., var. Dekalb 535, CORN), soybean (Glycine max L., var. Pella 86, SOY), and is upland rice (Oryza sp., var. Tebonnet, RICE) were included.
(§2) All plants were grown in 10 cm square plastic pots which were filled with a sandy loam soil mix. For pre-emerge tests, seeds were planted one day prior to application of the test compounds. For post-emerge tests, seeds were planted 8-21 days prior to the test to allow emergence and good foliage development prior to application of the test substances. At the time of the post-emerge application, plants of all species were usually at the 2-3 leaf stage of development.
(§3) All test compounds Were dissolved in acetone and applied to the test units in a volume of 187 l /ha. Test materials were applied at rates ranging from 15 g ai/ha to 1000 g ai/ha using a track sprayer equipped with a TJ8001E even flow flat fan spray nozzle. Plants were arranged on a shelf so that the top of the canopy (post-emerge) or top of the soil surface (pre-emerge) was 40-45 cm below the nozzle. Pressurized air was used to force the test solution through the nozzle as it was mechanically advanced (via electrically driven chain drive) over the top of all test plants/pots. This application simulates a typical commercial field herbicide application.
(§4) In the post-emerge test, a commercial non-ionic surfactant was also included (0.25% v/v) to enhance wetting of the leaf surfaces of target plants. Immediately after application, test units of the pre-emerge applications were watered at the soil surface to incorporate the test materials. Subsequently, these test units were bottom-watered. Post-emerge test units were always bottom-watered.
(§5) At 14 days after application of the test materials, phytotoxicity ratings were recorded. A rating scale of 0-100 was used as previously described in Research Methods in Weed Science, 2nd edition, B. Truelove, Ed., Southern Weed Science Society, Auburn University, Auburn, Ala. 1977. Briefly, “0” corresponds to no damage and “100” corresponds to complete death of all plants in the test unit. This scale was used both to determine efficacy against weed species and damage to crop species. Herbicide activity data for various compounds of this invention, which are shown by compound No. in Tables 1-8, are shown in Tables 11 and 12.

[2] = system: lambsquarters (Chenopodium album, CHEAL); assay: as above; conditions: phytotoxicity rating 0-100, 14 days after application
Description: as §1, §2, §3, §4, §5

[3] = system: velvetleaf (Abutilon theophrasti, ABUTH); assay: as above; conditions: phytotoxicity rating 0-100, 14 days after application
Description: as §1, §2, §3, §4, §5

[4] = system: sicklepod (Cassia obtusifolia, CASOB); assay: as above; conditions: phytotoxicity rating 0-100, 14 days after application
Description: as §1, §2, §3, §4, §5

[5] = system: ivyleaf morningglory (Ipomoea hederacea, IPOHE); assay: as above; conditions: phytotoxicity rating 0-100, 14 days after application
Description: as §1, §2, §3, §4, §5

[6] = system: large crabgrass (Digitaria sanguinalis, DIGSA); assay: as above; conditions: phytotoxicity rating 0-100, 14 days after application
Description: as §1, §2, §3, §4, §5

[7] = system: barnyardgrass (Echinochloa crus-galli, ECHCG); assay: as above; conditions: phytotoxicity rating 0-100, 14 days after application
Description: as §1, §2, §3, §4, §5

[8] = system: field corn (Zea mays L., var. Dekalb 535, CORN); assay: Post-emerge test, crop safety; conditions: post-emerge, 14 days after application, rating scale 0-100
Outline: (§6)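 Visual ratings on a 0-100 scale (0 no damage, 100 all plants dead) were taken at 14 days after treatment. Rates of 15-1000 g ai/ha in acetone, 187 l/ha, were sprayed onto soil one day after planting (pre-emerge) or onto 2-3 leaf plants with 0.25% v/v surfactant (post-emerge).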

[9] = system: upland rice (Oryza sp., var. Tebonnet, RICE); assay: Post-emerge test, crop safety; conditions: post-emerge, 14 days after application, rating scale 0-100
Outline: as §6

[10] = system: green foxtail (Setaria viridis, SETVI); assay: Post-emerge test, greenhouse herbicide activity screening; conditions: post-emerge, 14 days after application, rating scale 0-100
Description: as §1, §2, §3, §4, §5

[11] = system: lambsquarters (Chenopodium album, CHEAL); assay: as above; conditions: post-emerge, 14 days after application, rating scale 0-100
Description: as §1, §2, §3, §4, §5

[12] = system: velvetleaf (Abutilon theophrasti, ABUTH); assay: as above; conditions: post-emerge, 14 days after application, rating scale 0-100
Description: as §1, §2, §3, §4, §5

[13] = system: redroot pigweed (Amaranthus retroflexus, AMARE); assay: as above; conditions: post-emerge, 14 days after application
Description: as §1, §2, §3, §4, §5

[14] = system: sicklepod (Cassia obtusifolia, CASOB); assay: as above; conditions: post-emerge, 14 days after application, rating scale 0-100
Description: as §1, §2, §3, §4, §5

[15] = system: ivyleaf morningglory (Ipomoea hederacea, IPOHE); assay: as above; conditions: post-emerge, 14 days after application, rating scale 0-100
Description: as §1, §2, §3, §4, §5

[16] = system: large crabgrass (Digitaria sanguinalis, DIGSA); assay: as above; conditions: post-emerge, 14 days after application, rating scale 0-100
Description: as §1, §2, §3, §4, §5

[17] = system: barnyardgrass (Echinochloa crus-galli, ECHCG); assay: as above; conditions: post-emerge, 14 days after application, rating scale 0-100
Description: as §1, §2, §3, §4, §5

[18] = system: redroot pigweed (Amaranthus retroflexus, AMARE); assay: Pre-emerge test, greenhouse herbicide activity screening; conditions: phytotoxicity rating 0-100, 14 days after application
Outline: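 Rating: 0–100 visual injury, 14 DAA. Application: acetone, 187 l/ha, 15–1000 g ai/ha, flat-fan track sprayer with nozzle 40–45 cm above soil or canopy. Post-emerge runs used 0.25% v/v surfactant on 2–3 leaf plants.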

[19] = system: field corn (Zea mays L., var. Dekalb 535, CORN); assay: Pre-emerge test, crop safety; conditions: crop damage rating 0-100, 14 days after application
Outline: (§7)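 Applied at 15–1000 g ai/ha from acetone in 187 l/ha spray volume. Post-emergence applications included 0.25% v/v non-ionic surfactant and reached plants sown 8–21 days before. Pre-emergence applications were incorporated by surface watering. Efficacy or crop damage was rated on a 0–100 scale after 14 days.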

[20] = system: upland rice (Oryza sp., var. Tebonnet, RICE); assay: Pre-emerge test, crop safety; conditions: crop damage rating 0-100, 14 days after application
Outline: as §7

COc1c(Cl)cc(F)c(-n2c(=O)cc(C(F)(F)F)n(C)c2=O)c1NC(=O)OCc1cc(F)ccc1F [4-39]
Pre-emerge Herbicidal Activity SETVI ([1]; 63 g ai/ha): 100
Pre-emerge Herbicidal Activity SETVI ([1]; 250 g ai/ha): 100
Pre-emerge Herbicidal Activity CHEAL ([2]; 63 g ai/ha): 100
Pre-emerge Herbicidal Activity CHEAL ([2]; 250 g ai/ha): 100
Pre-emerge Herbicidal Activity ABUTH ([3]; 63 g ai/ha): 100
Pre-emerge Herbicidal Activity ABUTH ([3]; 250 g ai/ha): 100
Pre-emerge Herbicidal Activity CASOB ([4]; 63 g ai/ha): 30
Pre-emerge Herbicidal Activity CASOB ([4]; 250 g ai/ha): 90
Pre-emerge Herbicidal Activity IPOHE ([5]; 63 g ai/ha): 80
Pre-emerge Herbicidal Activity IPOHE ([5]; 250 g ai/ha): 100
Pre-emerge Herbicidal Activity DIGSA ([6]; 63 g ai/ha): 100
Pre-emerge Herbicidal Activity DIGSA ([6]; 250 g ai/ha): 100
Pre-emerge Herbicidal Activity ECHCG ([7]; 63 g ai/ha): 60
Pre-emerge Herbicidal Activity ECHCG ([7]; 250 g ai/ha): 80
phytotoxicity rating CORN (crop damage) ([8]; 63 g ai/ha): 70
phytotoxicity rating CORN (crop damage) ([8]; 250 g ai/ha): 100
phytotoxicity rating RICE (crop damage) ([9]; 63 g ai/ha): 60
phytotoxicity rating RICE (crop damage) ([9]; 250 g ai/ha): 60
phytotoxicity rating SETVI ([10]; 63 g ai/ha): 80
phytotoxicity rating SETVI ([10]; 250 g ai/ha): 90
phytotoxicity rating CHEAL ([11]; 63 g ai/ha): 100
phytotoxicity rating CHEAL ([11]; 250 g ai/ha): 100
phytotoxicity rating ABUTH ([12]; 63 g ai/ha): 100
phytotoxicity rating ABUTH ([12]; 250 g ai/ha): 100
phytotoxicity rating AMARE ([13]; 63 g ai/ha, rating scale 0-100 (0 no damage, 100 complete death)): 100
phytotoxicity rating AMARE ([13]; 250 g ai/ha, rating scale 0-100): 100
phytotoxicity rating CASOB ([14]; 63 g ai/ha): 100
phytotoxicity rating CASOB ([14]; 250 g ai/ha): 100
phytotoxicity rating IPOHE ([15]; 63 g ai/ha): 100
phytotoxicity rating IPOHE ([15]; 250 g ai/ha): 100
phytotoxicity rating DIGSA ([16]; 63 g ai/ha): 50
phytotoxicity rating DIGSA ([16]; 250 g ai/ha): 80
phytotoxicity rating ECHCG ([17]; 63 g ai/ha): 60
phytotoxicity rating ECHCG ([17]; 250 g ai/ha): 90
Pre-emerge Herbicidal Activity AMARE ([18]; 63 g ai/ha): 100
Pre-emerge Herbicidal Activity AMARE ([18]; 250 g ai/ha): 100
Pre-emerge Herbicidal Activity CORN ([19]; 63 g ai/ha): 70
Pre-emerge Herbicidal Activity CORN ([19]; 250 g ai/ha): 90
Pre-emerge Herbicidal Activity RICE ([20]; 63 g ai/ha): 80
Pre-emerge Herbicidal Activity RICE ([20]; 250 g ai/ha): 80
